Test results reported in US11912701B2, “Protein kinase inhibitors for promoting liver regeneration or reducing or preventing hepatocyte death” (HEPAREGENIX GMBH, priority 2018, dated 2024).

What was measured:
[1] = biological target: T1, MKK7 (Homo sapiens, UniProt O14733); test: 33PanQinase enzyme assay, MKK7; type: biochemical; design: purchased ProQinase GmbH, Freiburg, Germany (33PanQinase Assay Service); conditions: ratio IC50(MKK7)/IC50(MKK4)
T1 sequence (O14733 1-419): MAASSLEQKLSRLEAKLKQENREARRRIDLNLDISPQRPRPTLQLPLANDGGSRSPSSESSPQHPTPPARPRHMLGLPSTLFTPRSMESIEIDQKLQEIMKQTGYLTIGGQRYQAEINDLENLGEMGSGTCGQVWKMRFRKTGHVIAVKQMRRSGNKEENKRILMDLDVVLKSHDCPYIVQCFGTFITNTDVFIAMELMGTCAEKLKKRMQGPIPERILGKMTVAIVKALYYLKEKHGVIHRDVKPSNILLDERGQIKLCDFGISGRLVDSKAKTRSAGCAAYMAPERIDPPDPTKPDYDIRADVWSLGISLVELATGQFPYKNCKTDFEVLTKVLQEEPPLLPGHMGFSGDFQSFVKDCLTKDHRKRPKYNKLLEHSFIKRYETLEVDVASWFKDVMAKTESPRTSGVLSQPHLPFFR
Summary of the method: (§1)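 Radiometric kinase reactions with ATP, test compound in DMSO and enzyme/substrate mix were incubated 60 min at 30 °C, stopped with 2% H3PO4 and washed; incorporated 33Pi was counted by scintillation. Single-concentration data are given as % residual activity; IC50 values come from least-squares curve fits.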

[2] = biological target: T2, JNK1 (Homo sapiens, UniProt P45983); test: KINOMEscan competition binding assay, JNK1; design: M1/Q384; host or cells: HEK-293; conditions: ratio PoC (off-target)/PoC (MKK4)
Summary of the method: (§2)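 DNA-tagged kinases expressed in HEK-293 cells compete between immobilized ligand on blocked beads and test compound at 100 nM; kinase retained on beads quantified by qPCR of the tag.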
Target sequence in this assay (P45983 1-384 isoform P45983-2): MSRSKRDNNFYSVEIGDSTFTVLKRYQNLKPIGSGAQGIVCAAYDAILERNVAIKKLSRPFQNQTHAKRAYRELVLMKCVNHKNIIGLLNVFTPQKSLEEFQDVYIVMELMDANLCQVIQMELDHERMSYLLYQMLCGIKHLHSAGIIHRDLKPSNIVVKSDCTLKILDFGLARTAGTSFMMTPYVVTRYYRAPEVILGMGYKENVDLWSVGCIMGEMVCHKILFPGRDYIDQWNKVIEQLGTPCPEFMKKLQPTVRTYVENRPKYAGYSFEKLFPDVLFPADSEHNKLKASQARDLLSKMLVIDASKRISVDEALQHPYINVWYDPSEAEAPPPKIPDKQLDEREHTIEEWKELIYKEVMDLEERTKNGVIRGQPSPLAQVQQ

[3] = biological target: T1, MKK7; test: KINOMEscan competition binding assay, MKK7; design: M1/R419; host or cells: HEK-293; conditions: ratio PoC (off-target)/PoC (MKK4)
Summary of the method: as §2

[4] = biological target: T2, JNK1; test: 33PanQinase enzyme assay, JNK1; type: biochemical; design: purchased ProQinase GmbH, Freiburg, Germany (33PanQinase Assay Service); conditions: ratio IC50(JNK1)/IC50(MKK4)
Summary of the method: as §1
Target sequence in this assay (P45983 whole entry): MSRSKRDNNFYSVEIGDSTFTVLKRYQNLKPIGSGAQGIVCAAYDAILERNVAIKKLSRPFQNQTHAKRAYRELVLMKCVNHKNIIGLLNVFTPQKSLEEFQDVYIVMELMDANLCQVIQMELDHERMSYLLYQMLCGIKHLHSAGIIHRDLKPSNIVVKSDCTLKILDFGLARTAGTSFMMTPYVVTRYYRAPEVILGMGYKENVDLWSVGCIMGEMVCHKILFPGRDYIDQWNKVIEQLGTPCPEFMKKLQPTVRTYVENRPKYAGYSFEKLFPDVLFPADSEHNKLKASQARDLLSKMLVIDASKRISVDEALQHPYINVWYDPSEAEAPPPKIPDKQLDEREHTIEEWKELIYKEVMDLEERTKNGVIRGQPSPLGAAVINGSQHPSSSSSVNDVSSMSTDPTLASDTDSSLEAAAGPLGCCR

[5] = biological target: T3, MKK4 (Homo sapiens, UniProt P45985); test: KINOMEscan competition binding assay, MKK4; conditions: residual percent of control binding (PoC) at 100 nM
T3 construct: S84/D399; host or cells: HEK-293
T3 sequence (P45985 84-399): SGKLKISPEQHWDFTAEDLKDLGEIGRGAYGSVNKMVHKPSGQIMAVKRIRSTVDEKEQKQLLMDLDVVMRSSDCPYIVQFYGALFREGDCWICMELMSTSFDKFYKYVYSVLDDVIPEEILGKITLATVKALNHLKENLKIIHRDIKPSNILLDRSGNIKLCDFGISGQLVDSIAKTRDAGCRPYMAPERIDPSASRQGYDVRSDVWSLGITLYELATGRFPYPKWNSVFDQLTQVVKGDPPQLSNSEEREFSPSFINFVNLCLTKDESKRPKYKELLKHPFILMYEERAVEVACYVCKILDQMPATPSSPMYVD
Summary of the method: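 KINOMEscan competition of compound versus immobilized ligand for DNA-tagged MKK4 expressed in HEK-293 cells. Bound kinase was quantified by qPCR after elution.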

[6] = biological target: T4, MKK4 (Homo sapiens, UniProt P45985); test: 33PanQinase enzyme assay, MKK4; type: biochemical; conditions: assay 'IC50'; read-out: Potency MKK4 (IC50)
T4 construct: purchased ProQinase GmbH, Freiburg, Germany (33PanQinase Assay Service)
T4 sequence (P45985 1-399): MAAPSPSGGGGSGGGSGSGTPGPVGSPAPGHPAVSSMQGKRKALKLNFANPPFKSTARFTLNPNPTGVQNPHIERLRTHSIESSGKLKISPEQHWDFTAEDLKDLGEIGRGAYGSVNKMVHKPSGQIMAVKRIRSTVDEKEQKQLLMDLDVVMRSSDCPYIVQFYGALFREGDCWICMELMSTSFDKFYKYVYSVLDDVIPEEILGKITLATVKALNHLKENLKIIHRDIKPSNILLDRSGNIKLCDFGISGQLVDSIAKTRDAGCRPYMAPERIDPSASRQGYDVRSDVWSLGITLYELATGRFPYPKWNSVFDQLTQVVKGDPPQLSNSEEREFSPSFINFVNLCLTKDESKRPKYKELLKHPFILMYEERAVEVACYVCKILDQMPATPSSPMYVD
Summary of the method: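 Radiometric 33PanQinase assay: kinase, substrate, ATP and compound in standard buffer, 60 min at 30 °C; 33Pi incorporation read by scintillation counting.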

[7] = biological target: T5, BRaf (Homo sapiens, UniProt P15056); test: KINOMEscan competition binding assay, BRaf; conditions: ratio PoC (off-target)/PoC (MKK4)
T5 construct: purchased ProQinase GmbH, Freiburg, Germany (33PanQinase Assay Service)
Summary of the method: as §2

T5 sequence (P15056 whole entry, species assumed): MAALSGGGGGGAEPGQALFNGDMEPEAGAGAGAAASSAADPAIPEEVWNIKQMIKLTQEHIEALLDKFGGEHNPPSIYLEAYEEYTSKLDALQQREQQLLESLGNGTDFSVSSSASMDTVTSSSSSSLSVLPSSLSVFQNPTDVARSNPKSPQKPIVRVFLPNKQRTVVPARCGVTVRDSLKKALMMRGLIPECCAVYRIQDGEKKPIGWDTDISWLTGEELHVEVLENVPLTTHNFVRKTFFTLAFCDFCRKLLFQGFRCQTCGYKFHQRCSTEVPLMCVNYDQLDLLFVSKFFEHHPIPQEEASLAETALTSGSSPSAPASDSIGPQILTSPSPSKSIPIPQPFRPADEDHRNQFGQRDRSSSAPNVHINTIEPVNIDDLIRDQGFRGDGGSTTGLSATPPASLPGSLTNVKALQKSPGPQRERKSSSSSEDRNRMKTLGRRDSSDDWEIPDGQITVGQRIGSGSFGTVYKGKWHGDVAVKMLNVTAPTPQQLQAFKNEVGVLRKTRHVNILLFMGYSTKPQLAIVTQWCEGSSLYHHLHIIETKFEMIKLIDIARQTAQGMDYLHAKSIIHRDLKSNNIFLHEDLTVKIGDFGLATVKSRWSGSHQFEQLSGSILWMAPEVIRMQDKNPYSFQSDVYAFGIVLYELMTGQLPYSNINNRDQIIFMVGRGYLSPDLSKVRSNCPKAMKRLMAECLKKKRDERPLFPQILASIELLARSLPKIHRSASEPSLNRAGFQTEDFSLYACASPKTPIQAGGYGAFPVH

| SMILES | Selectivity IVIKK7, IC50(off-target)/IC50(MKK4) [1] | selectivity based on % Ctrl @100 nM vs. JNK1 [2] | selectivity based on % Ctrl @100 nM vs. MKK7 [3] | Selectivity JNK1, IC50(off-target)/IC50(MKK4) [4] | MKK4 [% Ctrl @ 100 nM [5] | IC50 [6] [µM] | selectivity based on % Ctrl @100 nM vs. Braf [7] |
| --- | --- | --- | --- | --- | --- | --- | --- |
| CS(=O)(=O)Nc1c(F)ccc(C(=O)c2c[nH]c3ncc(-c4cccnc4)cc23)c1F [Example 228, N-(2,6-difluoro-3-(5-(pyridin-3-yl)-1H-pyrrolo[2,3-b]pyridine-3-carbonyl)phenyl)methanesulfonamide] | ++ (100 ≥ IC50(off-target)/IC50(MKK4) > 10) | +++ (Ratio > 100) | +++ (Ratio > 100) | ++ (100 ≥ IC50(off-target)/IC50(MKK4) > 10) | +++ (PoC < 1) | 0.1 to 1 | +++ (Ratio > 100) |
| CNc1ncc(-c2cnc3[nH]cc(C(=O)c4ccc(F)c(NS(=O)(=O)CCC(F)(F)F)c4F)c3c2)cn1 [Example 177, N-(2,6-difluoro-3-(5-(2-(methylamino)pyrimidin-5-yl)-1H-pyrrolo[2,3-b]pyridine-3-carbonyl)phenyl)-3,3,3-trifluoropropane-1-sulfonamide] | +++ (IC50(off-target)/IC50(MKK4) > 100) | +++ (Ratio > 100) | +++ (Ratio > 100) | +++ (IC50(off-target)/IC50(MKK4) > 100) | +++ (PoC < 1) | < 0.1 | +++ (Ratio > 100) |
| CCCS(=O)(=O)Nc1ccc(F)c(C(=O)c2c[nH]c3ncc(-c4ccnnc4)cc23)c1F [Example 49] | ++ (100 ≥ IC50(off-target)/IC50(MKK4) > 10) | +++ (Ratio > 100) | +++ (Ratio > 100) | ++ (100 ≥ IC50(off-target)/IC50(MKK4) > 10) | +++ (PoC < 1) | 1 to 10 | ◯ (3 ≥ Ratio) |
| CCCS(=O)(=O)Nc1ccc(F)c(C(=O)c2c[nH]c3ncc(C4CCNCC4)cc23)c1F [Example 241, N-(2,4-difluoro-3-(5-(piperidin-4-yl)-1-pyrrolo[2,3-b]pyridine-3-carbonyl)phenyl)propane-1-sulfonamide] | + (10 ≥ IC50(off-target)/IC50(MKK4) > 3) | + (10 ≥ ratio > 3) | + (10 ≥ ratio > 3) | ◯ (3 ≥ IC50(off-target)/IC50(MKK4)) | + (3 ≤ PoC < 30) | 1 to 10 | ◯ (3 ≥ Ratio) |
| CCCS(=O)(=O)Nc1ccc(F)c(C(=O)c2c[nH]c3ncc(-c4c[nH]c(=O)cn4)cc23)c1F [Example 88, N-(2,4-difluoro-3-(5-(5-oxo-4,5-dihydropyrazin-2-yl)-1H-pyrrolo[2,3-b]pyridine-3-carbonyl)phenyl)propane-1-sulfonamide] | ++ (100 ≥ IC50(off-target)/IC50(MKK4) > 10) | +++ (Ratio > 100) | +++ (Ratio > 100) | ◯ (3 ≥ IC50(off-target)/IC50(MKK4)) | +++ (PoC < 1) | 0.1 to 1 | + (10 ≥ ratio > 3) |
| CCCS(=O)(=O)Nc1ccc(F)c(C(=O)c2c[nH]c3ncc(-c4nncs4)cc23)c1F [Example 86, N-(3-(5-(1,3,4-thiadiazol-2-yl)-1H-pyrrolo[2,3-b]pyridine-3-carbonyl)-2,4-difluorophenyl)propane-1-sulfonamide] | ++ (100 ≥ IC50(off-target)/IC50(MKK4) > 10) | ++ (100 ≥ ratio > 10) | ++ (100 ≥ ratio > 10) | ◯ (3 ≥ IC50(off-target)/IC50(MKK4)) | + (3 ≤ PoC < 30) | 1 to 10 | ◯ (3 ≥ Ratio) |
| CCCS(=O)(=O)Nc1ccc(F)c(C(=O)c2c[nH]c3ncc(C4CCC4)cc23)c1F [Example 123, N-(3-(5-cyclobutyl-1-pyrrolo[2,3-b]pyridine-3-carbonyl)-2,4-difluorophenyl)propane-1-sulfonamide] | +++ (IC50(off-target)/IC50(MKK4) > 100) | +++ (Ratio > 100) | +++ (Ratio > 100) | ◯ (3 ≥ IC50(off-target)/IC50(MKK4)) | +++ (PoC < 1) | 0.1 to 1 | ++ (100 ≥ ratio > 10) |

More lines, now with the values ahead:

| Selectivity IVIKK7, IC50(off-target)/IC50(MKK4) [1] | selectivity based on % Ctrl @100 nM vs. JNK1 [2] | selectivity based on % Ctrl @100 nM vs. MKK7 [3] | Selectivity JNK1, IC50(off-target)/IC50(MKK4) [4] | MKK4 [% Ctrl @ 100 nM [5] | IC50 [6] [µM] | selectivity based on % Ctrl @100 nM vs. Braf [7] | SMILES |
| --- | --- | --- | --- | --- | --- | --- | --- |
| ◯ (3 ≥ IC50(off-target)/IC50(MKK4)) | ++ (100 ≥ ratio > 10) | ++ (100 ≥ ratio > 10) | ◯ (3 ≥ IC50(off-target)/IC50(MKK4)) | + (3 ≤ PoC < 30) | > 10 | ◯ (3 ≥ Ratio) | CCCS(=O)(=O)Nc1ccc(F)c(C(=O)c2c[nH]c3ncc(-c4cc[nH]c4)cc23)c1F [Example 100, N-(3-(5-(1H-pyrrol-3-yl)-1H-pyrrolo[2,3-b]pyridine-3-carbonyl)-2,4-difluorophenyl)propane-1-sulfonamide] |
| +++ (IC50(off-target)/IC50(MKK4) > 100) | +++ (Ratio > 100) | +++ (Ratio > 100) | +++ (IC50(off-target)/IC50(MKK4) > 100) | +++ (PoC < 1) | < 0.1 | +++ (Ratio > 100) | CS(=O)(=O)Nc1c(F)ccc(C(=O)c2c[nH]c3ncc(-c4ccncc4)cc23)c1F [Example 234, N-(2,6-difluoro-3-(5-(pyridin-4-yl)-1H-pyrrolo[2,3-b]pyridine-3-carbonyl)phenyl)methanesulfonamide] |
